Data on two compounds can be found in PMC4604124, “In Vitro Characterization of the Pharmacological Properties of the Anti-Cancer Chelator, Bp4eT, and Its Phase I Metabolites” (PLoS ONE, 2015).

Type in all cases: cell-based, human
For one data set, the system named is LC3-II. Briefly: Western blot and densitometry of LC3-I/II (autophagy). As to conditions: for densitometry WB, relative to NT = 1: single blot. From the text:
Established protocols were used to prepare cell lysates and perform immunoblot analysis. Primary antibodies used include: rabbit LC3 (Cat. #: MBPM036; 1:2,000) from Abacus (Brisbane, Australia) and mouse β-actin (Cat. #: A1978, 1:10,000) from Sigma-Aldrich. The following secondary antibodies were utilized: horseradish peroxidase (HRP)-conjugated anti-rabbit (Cat. #: A6154, […]) and anti-mouse (Cat. #: A4416, 1:10,000) antibodies from Sigma-Aldrich. To ensure equal loading of proteins, membranes were probed for β-actin.

For data set [1], the system named is MCF-7 cells. Briefly: Mitochondrial morphology, MitoTracker Green FM. The conditions noted are these: 10 or 100 nM, 72 h. As to the method:
Markers used to assess autophagy/apoptosis/necrosis in MCF-7 cells and changes of lysosomal and mitochondrial morphology were observed using an Eclipse Ti inverted epifluorescence microscope (Nikon, Tokyo, Japan), that was equipped with a cooled digital camera Zyla 5.5 sCMOS (Andor Technology, Belfast, UK), and NIS-Elements C 4.1 software (Laboratory Imaging, Prague, Czech Republic). The MCF-7 cells were seeded in 6-well plates with cover slips on the bottom at a density of 150,000 cells/well and incubated as described above in the presence or absence of 10 or 100 nM Bp4eT.
To determine the effect of Bp4eT on mitochondrial morphology, the cells were incubated with MitoTracker® Green FM (0.25 μM; λex = 490 nm; λem = 516 nm; Molecular Probes) for 10 min/37°C. The cells were then washed with fresh medium and the images captured using the microscope described above.

Data set [2] concerns MCF-7 cells. Briefly: Viability (viabilita) used to normalise caspase activity.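 Also: compound tested at 100 nM.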 The conditions noted are these: kontrola = 100. From the text: Supplement pone.0139929.s002.zip/caspases activity.xlsx, sheet "results_viability"
Where [3] appears, read: Supplementary Fig 2, 5uM (5M [sic] for Bp4eT).
The mark [4] stands for this setting: Supplementary Fig 2, Baf+, 10nM.
Where [5] appears, read: Supplementary Fig 2, Baf+, 100nM.
Where [6] appears, read: Supplementary Fig 2, Baf+, 5uM (5M [sic] for Bp4eT).

Where “and” joins values, the source holds several entries; their conditions need not be identical. Equal values may be shown once.

Turning to `CCNC(=S)NN=C(c1ccccc1)c1ccccn1` [Bp4eT, 2-benzoylpyridine 4-ethyl-3-thiosemicarbazone], the “LC3II expression with Baf A1 relative to Baf A1 and control” value in the data set with LC3-II (24 h/37°C, MCF-7, agent at all concentrations (10 nM– 5 μM), Baf A1 100 nM) is on record as “did not lead to a significant (p > 0.05) increase”. In the data set on LC3-II (72 h/37°C, MCF-7, Baf A1 100 nM, Bp4eT 10 and 100 nM, Dp44mT 100 nM), the “LC3-II levels upon co-incubation with Baf A1, compared to Baf A1 alone” value is “significant (p < 0.001–0.05) suppression”. Further, the “densitometry WB, relative to NT = 1, Average” value in the data set on LC3-II (Fig 7E, 10nM) was determined as 6.247; in the data set with LC3-II (Fig 7E, 100nM), 6.003; in the data set with LC3-II (Supplementary Fig 2, 10nM), 1.7596; with LC3-II (Supplementary Fig 2, 100nM), 0.8507; with LC3-II (setting [3]), 0.7357; in the data set with LC3-II (setting [4]) it was 143.432. Further, the “densitometry WB, relative to NT = 1, Average” value was 74.7567 with LC3-II (setting [5]) and 159.207 with LC3-II (setting [6]). Further, the “densitometry WB, relative to NT = 1” value in the data set on LC3-II (Fig 7E, 10nM) was 4.981 and 5.294 and 8.4664; in the data set with LC3-II (setting [3]) it was 0.9358 and 0.7729 and 0.4982; in the data set on LC3-II (setting [4]) it was 159.536 and 131.647 and 139.114; in the data set with LC3-II (setting [5]) it was 63.4737 and 60.9216 and 99.8746; in the data set on LC3-II (setting [6]), 188.04 and 116.854 and 172.727. In addition, the “LC3-II levels compared to the control” value with LC3-II (agent alone, 72 h/37°C, MCF-7, Bp4eT 10 and 100 nM, Dp44mT 100 nM, Baf A1 100 nM) was “slight, but significant (p < 0.05) increase”. Moreover, the Mitochondrial morphology entry in the data set on MCF-7 cells [1] was “more swollen and enlarged”.

For the compound `CCNC(=O)NN=C(c1ccccc1)c1ccccn1` [E-Bp4eS, 2-benzoylpyridine 4-ethylsemicarbazone], the viabilita with MCF-7 cells [2] (3 hodiny) is 98.187; in the data set on MCF-7 cells [2] (24 hodin), 99.4673; with MCF-7 cells [2] (72 hodin) it was 97.81.
